From ChEMBL document CHEMBL1201862, “PubChem BioAssay data set” (2004)
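Five compound concentrations were applied to cells in 96-well plates for 48 hours; endpoints were derived by simple linear interpolation of the resulting dose-response curve. GI50: concentration for 50% inhibition of growth.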 The source made the active and inactive calls. No stated cut-off is given here; in the data, active = GI50 up to about 1.1 µM and inactive = higher.

Tests used:
Experiment in all cases: NCI tumour cell line growth inhibition, 48 h
786-0 = system: 786-0
A549 = system: A549
DU-145 = system: DU-145
HCC 2998 = system: HCC 2998
M14 = system: M14
MCF7 = system: MCF7
MDA-MB-435 = system: MDA-MB-435
MOLT-4 = system: MOLT-4
Malme-3M = system: Malme-3M
NCI-H226 = system: NCI-H226
NCI-H23 = system: NCI-H23
OVCAR-3 = system: OVCAR-3
OVCAR-8 = system: OVCAR-8
RPMI-8226 = system: RPMI-8226
SN12C = system: SN12C
SNB-19 = system: SNB-19
SW-620 = system: SW-620
UACC-257 = system: UACC-257
UACC-62 = system: UACC-62
UO-31 = system: UO-31

SMILES | GI50 (786-0) | GI50 (A549) | GI50 (DU-145) | GI50 (HCC 2998) | GI50 (M14) | GI50 (MCF7) | GI50 (MDA-MB-435) | GI50 (MOLT-4) | GI50 (Malme-3M) | GI50 (NCI-H226) | GI50 (NCI-H23) | GI50 (OVCAR-3) | GI50 (OVCAR-8) | GI50 (RPMI-8226) | GI50 (SN12C) | GI50 (SNB-19) | GI50 (SW-620) | GI50 (UACC-257) | GI50 (UACC-62) | GI50 (UO-31)
O=C1c2ccccc2C(=O)c2c(OCC3CO3)ccc(OCC3CO3)c21 (centres undefined) | 1.48 µM (inactive) | 3.46 µM (inactive) | 3.18 µM (inactive) | 16.1 µM (inactive) | 1.3 µM (inactive) | 0.195 µM (active) | 2.7 µM (inactive) | 0.0653 µM (active) | 7.74 µM (inactive) | 12.4 µM (inactive) | 4.12 µM (inactive) | 3.4 µM (inactive) | 1.48 µM (inactive) | 6 µM (inactive) | 1.07 µM (active) | 7.67 µM (inactive) | 1.1 µM (active) | 6.04 µM (inactive) | 2.1 µM (inactive) | 2.94 µM (inactive)
COc1c(C=O)c2c(c(OC)c1OC)-c1ccc(OC)c(=O)cc1[C@@H](NC(C)=O)CC2 | 0.132 µM (active) | 0.437 µM (active) | 0.415 µM (active) | 0.0637 µM (active) | 0.051 µM (active) | < 0.01 µM (active) | < 0.01 µM (active) | < 0.01 µM (active) | 0.164 µM (active) | 0.583 µM (active) | 0.034 µM (active) | 0.0327 µM (active) | 0.0444 µM (active) | < 0.01 µM (active) | 0.0824 µM (active) | 0.144 µM (active) | 0.0148 µM (active) | 0.0826 µM (active) | 0.0412 µM (active) | 11.5 µM (inactive)
CC1C(=O)C(C)C(c2ccccc2)N(N=O)C1c1ccccc1 (centres undefined) | 126 µM (inactive) | 207 µM (inactive) | 173 µM (inactive) | > 100 µM (inactive) | 283 µM (inactive) | > 100 µM (inactive) | 157 µM (inactive) | > 695 µM (inactive) | > 318 µM (inactive) | > 69.5 µM (inactive) | > 69 µM (inactive) | 197 µM (inactive) | > 91.6 µM (inactive) | > 724 µM (inactive) | 400 µM (inactive) | 64.4 µM (inactive) | > 100 µM (inactive) | > 548 µM (inactive) | > 475 µM (inactive) | > 21.1 µM (inactive)
CC1(C)CCC[C@@]2(C)C1C(=O)[C@@H]1O[C@]1(C)[C@@H]2CO (some centres undefined) | 23.2 µM (inactive) | 19.6 µM (inactive) | 38.5 µM (inactive) | 20.4 µM (inactive) | 24.4 µM (inactive) | > 100 µM (inactive) | 21 µM (inactive) | 39 µM (inactive) | 37.9 µM (inactive) | 33.3 µM (inactive) | 16.3 µM (inactive) | 18.4 µM (inactive) | 27.3 µM (inactive) | 15.2 µM (inactive) | 25.5 µM (inactive) | 24.4 µM (inactive) | 24.7 µM (inactive) | 43.8 µM (inactive) | 37.2 µM (inactive) | 53.7 µM (inactive)
O=C1N[C@@H](c2c[nH]c3ccc(Br)cc23)C(=O)N[C@H]1c1c[nH]c2ccc(Br)cc12 | 11.5 µM (inactive) | 13.8 µM (inactive) | 13.8 µM (inactive) | 3.61 µM (inactive) | 9.12 µM (inactive) | 12.6 µM (inactive) | 4.25 µM (inactive) | 3.53 µM (inactive) | 14.4 µM (inactive) | 10.8 µM (inactive) | 10.6 µM (inactive) | 9.23 µM (inactive) | 11.4 µM (inactive) | 7.46 µM (inactive) | 12.4 µM (inactive) | 15.2 µM (inactive) | 10.9 µM (inactive) | 12 µM (inactive) | 7.26 µM (inactive) | 16.3 µM (inactive)
COC(=O)c1nsc(OC)c1Cl | > 100 µM (inactive) | > 100 µM (inactive) | > 100 µM (inactive) | > 100 µM (inactive) | > 100 µM (inactive) | > 100 µM (inactive) | > 100 µM (inactive) | > 100 µM (inactive) | > 100 µM (inactive) | > 100 µM (inactive) | > 100 µM (inactive) | > 100 µM (inactive) | > 100 µM (inactive) | > 100 µM (inactive) | > 100 µM (inactive) | > 100 µM (inactive) | > 100 µM (inactive) | > 100 µM (inactive) | > 100 µM (inactive) | > 100 µM (inactive)
CO[C@@H]1C[C@H]2[C@@H]3CC[C@H]([C@H](C)COC(C)=O)[C@@]3(C)CC[C@@H]2[C@@]2(C)CC[C@H]3C[C@]312 | > 100 µM (inactive) | > 100 µM (inactive) | > 100 µM (inactive) | > 100 µM (inactive) | > 100 µM (inactive) | 81.3 µM (inactive) | > 100 µM (inactive) | > 100 µM (inactive) | > 100 µM (inactive) | > 100 µM (inactive) | > 100 µM (inactive) | > 100 µM (inactive) | > 100 µM (inactive) | > 100 µM (inactive) | > 100 µM (inactive) | > 100 µM (inactive) | > 100 µM (inactive) | > 100 µM (inactive) |  | > 100 µM (inactive)
